In patent publication US5994357A, “Method of treatment for interstitial cystitis” (priority 1994, dated 1999):
Where a name gives a salt, the structure may show the parent alone.

Key:
[1] = type: in vivo, human (female patients); settings: for relief by previous treatment: six DMSO treatments and one heparin treatment
Method: They were administered a 75 mg oral dose of hydroxyzine pamoate per day. After 5 days the burning sensation upon voiding and sharp pelvic pain disappeared. In two months, the extreme tenderness from their chest area to pelvic area also disappeared. After about 10 to 12 weeks frequency was eliminated. […] Upon discontinuing administration of hydroxyzine pamoate symptoms reappeared within 24 hours or less. After one year of treatment, the subject takes 50 mg and 25 mg of hydroxyzine pamoate, respectively, on alternating days, with continued 100% success.
This person three was diagnosed with interstitial cystitis in March 1989. […] Their symptoms included constant burning in the bladder, pain at the connection of the buttocks with the upper legs and painful sexual intercourse. They could not sleep although their need to urinate was only about four times per night. Sitting on "blue ice" packs wrapped in a cloth provided some relief from the buttock pain and the burning.
This is person one who experienced increasing problems over the last 10 years until it became difficult to function as a nurse, parent and spouse. […] They had not received any treatment since February 1990 and was experienceing a flare up of symptoms when they tried hydroxyzine-HCl. […]

bladder mast cells = experiment: Inhibition of neurohormonal activation of bladder mast cell secretion; type: cell-based; settings: for inhibition of neurohormonal activation of bladder mast cell secretion (in words): found by the applicant
Description: "Inhibitor of neurohormonal activation of mast cell secretion" refers to any substance or group of substances, devoid of any psychotropic effects which prevent the stimulation of mast cell secretion by hormones or molecules produced by nervous tissue. Whether or not a pharmacologically active substance is an inhibitor of neurohormonal activation of mast cell secretion can be determined by using the following procedure: Mast cells purified from peritoneal cavities of rats and stimulated by a neuropeptide, such as somatostatin (Theoharides, T. C. and Douglas, W. W. Endocrinology 102:1637-1640, 1978), or rat brain slices stimulated by substance P in special perfusion chambers (Dimitriadou, V., Buzzi, M. G., Moskowitz, M. A. and Theoharides, T. C. Neuroscience 44:27-39, 1991) or rat bladder mast cells stimulated by carbachol in special perfusion chambers (Theoharides, T. C. and Sant, G. R. Seminars Urology […], 1991) will first be […] with concentration of the agents to be tested ranging from 0.1 μmol/L-to-100 μmol/L of solution for varying amounts of time at 37° C. to determine their ability to inhibit subsequent mast cell secretion as described above.
These compounds can be tested by preincubating mast cells purified from the peritoneal cavity of rats with various concentrations of compound, typically 0.1 μmol/L to 1,000 μmol/L, for various times at 37° C. before stimulating mast ctll secretion with a stimulus such as somatostatin (Theoharides, T. C. and Douglas, W. W. Somatostatin induces histamine secretion from rat peritoneal mast cells. Endocrinology 102:1637-1640, 1978).
(§1) More appropriate to interstitial cystitis, bladder mast cells can be triggered to secrete in situ using slices of rodent bladders in perfusion chambers and measuring secreted chemicals (Theoharides, T. C. and Sant, G. R. Bladder mast cell activation in interstitial cystitis. Seminars Urology 9:74-87, 1991).

Rat Bladder Mast Cells = experiment: ID20 for histamine release, inhibition of mast cell secretion by H-1 receptor antagonists in vitro (Table 5); type: cell-based; settings: inhibitory dose causing 20% inhibition, read-out: ID20 for Histamine Release from Rat Bladder Mast Cells
Description: "Inhibitor of neurohormonal activation of mast cell secretion" refers to any substance or group of substances, devoid of any psychotropic effects which prevent the stimulation of mast cell secretion by hormones or molecules produced by nervous tissue.
as §1

[2] = cited from earlier work
[3] = cited from earlier work; remark: listed apart in the source
[4] = Anticholinergic and anxiolytic properties; settings: decreasing frequency
neurons = experiment: Inhibition of neuropeptide release from neurons stimulated by high K^+; type: cell-based
[5] = Example 2, patient three, since March 1991
[6] = Example 2, patient three, 25 mg
[7] = Example 1, patient two, 75 mg oral per day

Compound: OCCOCCN1CCN(C(c2ccccc2)c2ccc(Cl)cc2)CC1 (racemic) [hydroxyzine-HCl]
- pain on sexual intercourse ([1]; Example 2, patient three): no longer associated with severe bladder pain
- quality of life ([1]; Example 2, patient three): definitely improved the quality of their life
- tolerance of offending foods ([1]; Example 2, patient three): they can eat some offending foods in small quantities
- burning in the bladder [1, 5]: the burning has subsided significantly
- buttock pain [1, 5]: the buttock pain is reduced
- symptoms on attempted withdrawal of the drug ([1]; Example 3, patient one, 2 or 3 occasions): definite increase in interstitial cystitissymptoms
- bladder comfort ([1]; Example 3, patient one, 25 to 50 mg daily): almost total bladder comfort
- control of symptoms ([1]; Example 3, patient one, daily since May 1990): remarkable control of symptoms

Compound: CN1CCC(=C2c3ccccc3CCc3cccnc32)CC1 [Azatadine]
- inhibition of neurohormonal activation of bladder mast cell secretion (in words) (bladder mast cells): inhibit neurohormonal activation of bladder mast cell secretion
- IC20 (Rat Bladder Mast Cells): 1000 nM

Compound: CN1CCCC(n2nc(Cc3ccc(Cl)cc3)c3ccccc3c2=O)CC1 (stereo not drawn) [Azelastine]
- inhibition of neurohormonal activation of bladder mast cell secretion (in words) (bladder mast cells): inhibit neurohormonal activation of bladder mast cell secretion
- IC20 (Rat Bladder Mast Cells): 1000 nM

Compound: C[S+](C)[O-] [DMSO, dimethylsulfoxide]
- pulmonary excretion ([2]; intravesical): pulmonary excretion of a small percentage of the DMSO as dimethyl sulfide
- relief by previous treatment ([1]; Example 2, patient three): very limited relief
- improvement by previous treatment ([1]; Example 3, patient one): fairly good improvement
- side effects: bladder and urethra ([3]; intravesical): Bladder spasms and irritability may be experienced with DMSO treatment, as well as urethral burning during voiding
- side effects: breath odor and taste ([3]; intravesical, most patients): garlic-like breath odor and a similar taste in their mouths

Compound: OCCOCCN1CCN(C(c2ccccc2)c2ccc(Cl)cc2)CC1 (stereo not drawn) [Hydroxyzine]
- inhibition of secretion from stimulated bladder mast cells (in words) (bladder mast cells; Table 3, unique characteristics): inhibits secretion from stimulated bladder mast cells
- inhibition of neurohormonal activation of bladder mast cell secretion (in words) (bladder mast cells): inhibit neurohormonal activation of bladder mast cell secretion
- anticholinergic properties (in words) [4]: strong anticholinergic properties decreasing frequency
- inhibition of neuropeptide release from neurons (in words) (neurons): inhibits neuropeptide release from neurons
- relief from frequency, dysuria, pain ([1]; 9 females, 25 mg twice - three times/day × 8 months, alternate 25 mg every other day past 8 months): 80-100%
- Problems (side effects) ([1]; human, in vivo): Mild sedation, weakness × 1 week
- IC20 (Rat Bladder Mast Cells): 50000 nM

Compound: CN1CCC(=C2c3ccccc3CC(=O)c3sccc32)CC1 [Ketotifen]
- inhibition of neurohormonal activation of bladder mast cell secretion (in words) (bladder mast cells): inhibit neurohormonal activation of bladder mast cell secretion

Compound: CN(C)CCC=C1c2ccccc2CCc2ccccc21 [amitriptyline]
- success of previous treatment ([1]; Example 1, patient two, conventional methods and amitriptyline): limited success
- effect of previous treatment on sleep [1, 6]: enabled them to sleep some
- foods bringing symptoms on previous treatment [1, 6]: many foods still brought severe symptoms
- side effects ([3]; human, in vivo): troublesome side effects such as hypotension, tachycardia, anxiety, or palpitations

Compound: O=C(O)COCCN1CCN(C(c2ccccc2)c2ccc(Cl)cc2)CC1 (stereo not drawn) [cetirizine]
- inhibition of neurohormonal activation of bladder mast cell secretion (in words) (bladder mast cells): inhibit neurohormonal activation of bladder mast cell secretion

Compound: OCCOCCN1CCN(C(c2ccccc2)c2ccc(Cl)cc2)CC1 (stereo not drawn) [hydroxyzine pamoate]
- patient-reported state ([1]; Example 1, patient two): felt 100% normal
- time to reappearance of symptoms upon discontinuing administration ([1]; Example 1, patient two): ≤ 24 h
- time to disappearance of burning sensation upon voiding and sharp pelvic pain [1, 7]: 5 days
- time to disappearance of extreme tenderness from chest area to pelvic area [1, 7]: two
- continued success after one year of treatment ([1]; Example 1, patient two, 50 mg and 25 mg on alternating days): 100%

Compound: CN(C)CCN(Cc1ccccc1)c1ccccn1 [pyribenzamine]
- duration of the response ([3]; oral, 50 mg three times daily): variable
- symptomatic improvement ([3]; oral, 50 mg three times daily): some symptomatic improvement

Compound: heparin
- relief by previous treatment ([1]; Example 2, patient three): very limited relief

Compound: sodium pentosan polysulfate
- duration ([2]; must be taken numerous times per day): short duration
- amount of drug reaching the site of treatment ([2]; oral): only a small amount of the drug will reach the site of treatment
- metabolism ([2]; oral): primarily liver-metabolized
- replacement of the protective surface mucin ([3]; oral or intravesical administration): replace the protective surface mucin
